Measured values taken from US20260053932A1, “COMPOUNDS AND METHODS FOR THE TARGETED DEGRADATION OF ANDROGEN RECEPTOR AND ASSOCIATED METHODS OF USE” (Arvinas Operations, Inc., priority 2020, published 2026).

Tested on: androgen receptor (AR) in LNCaP and/or VCaP cells
Assay: Androgen Receptor ELISA assay (AR degradation)
Type: cell-based
Conditions: degradation of AR ELISA in LNCaP and/or VCaP cells; Table 2C; read-out: DC50 Code*
Protocol: Androgen Receptor ELISA Assay. […] The protocols used with VCaP cells are described below.
The cells were grown for a minimum of 3 days.
(2)(i) A 10× stock plate in media was made; (ii) 2.5 μL of the 1000× stock was transferred to a new 10× stock plate (use 12 channel pipet, start at A (DMSO control) work thru H. When 247.5 µL of media was added to this plate, it served as a 10× stock; (iii) made media+1 nM R1881 for making 10× stock plate; (iv) added 247.5 μL of media with 1 nM R1881 to each well of the 10× stock plate, mix.
Then 22 μL of 10× stock was added to cells and incubated for 5 hours. […] Media was aspirated, and 100 μL 1× cell lysis buffer/well was added. The cells were placed on a shaker located in a cold room for 10 minutes and shaken at speed 7. The lysate mixture was mix and 20 μL transferred to 100 μl of Diluent in ELISA plate (0.15 μg/ml-[…]). The lysate-diluent mixture was store at 4° C. overnight on a shaker located in a cold room at speed 5 (gentle swirl).
The lysate-diluent mixture was shaken for 30 minutes at 37° C. The mouse AR antibody, anti-mouse antibody, TMB, and STOP solution were allowed to come to room temperature. The 1×ELISA buffer included in kit was made and loaded in reservoir. Media from the plate was discarded, the ELISA plate was tapped hard on paper towel, and washed 4×200 μl ELISA wash buffer using a plate washer for the first three washes and an eight channel aspirator for the fourth wash to more thoroughly aspirate the solution.
Next, 100 μL/well of mouse AR detection Ab was added; the plate was covered and shaken at 37° C. for 1 hour; media was discarded from the plates, the plates tapped on a paper towel and washed four times with 200 μL ELISA wash buffer with a plate washer for the first three washes and an eight channel aspirator for the fourth wash; 100 μL/well of anti-mouse—HRP conjugated Ab (comes with the kit) was added; the plates was cover and shaken at 37° C. for 30 minutes; the TMB reagent was allowed to come to room temperature; the media from the plate was discarded, the plates tapped on paper towel, and washed four times with 200 μL ELISA wash buffer with a plate washer for the first three washes and an eight channel aspirator for the fourth wash; plates were tapped on paper towel; 100 μL TMB was added to each well and the plate shaken for 2 minutes—while watching color. STOP solution (100 μL) was added when light blue color developed.
Data was analyzed and plotted using GraphPad Prism software. Exemplary compounds of Tables 1A, 1B, and 1C were assayed and the data shown below in Tables 2A, 2B, and 2C. DC50 (nM) categories (degradation of AR ELISA in LNCaP and/or VCaP cells) of Tables 2A, 2B, and 2C are as follows: A<1 nM; 1≤B<10 nM; 10≤C<100 nM; D≥100 nM. Dmax (%) categories (degradation of AR ELISA in LNCaP and/or VCaP cells) of Table 2 are as follows: A≥70; 50≤B<70; C<50

| SMILES | DC50 [nM] |
| --- | --- |
| [2H]C([2H])([2H])Oc1cc(O[C@H]2C(C)(C)[C@H](NC(=O)c3cnc(N4CCC(CN(C(C)C)[C@H]5C[C@H](Oc6cc(OC([2H])([2H])[2H])c7c(c6)C(=O)N(C6CCC(=O)NC6=O)C7=O)C5)CC4)cn3)C2(C)C)ccc1C#N (mixture of isomers) [compound 202, rac-N-((1r,3r)-3-(4-cyano-3-(methoxy-d3)phenoxy)-2,2,4,4-tetramethylcyclobutyl)-5-(4-((((1r,3r)-3-((2-(2,6-dioxopiperidin-3-yl)-7-(methoxy-d3)-1,3-dioxoisoindolin-5-yl)oxy)cyclobutyl) (isopropyl)amino)methyl)piperidin-1-yl)pyrazine-2-carboxamide] | < 1 |
| Cc1cc(O[C@H]2C(C)(C)[C@H](NC(=O)c3ccc(CN4CCOC[C@@H]4CN4CCN(c5ccc6c(c5)C(=O)N(C5CCC(=O)NC5=O)C6=O)CC4)cc3)C2(C)C)cc(C)c1C#N (stereo partly drawn) [compound 196, N-((1r,3S)-3-(4-cyano-3,5-dimethylphenoxy)-2,2,4,4-tetramethylcyclobutyl)-4-(((3S)-3-((4-(2-(2,6-dioxopiperidin-3-yl)-1,3-dioxoisoindolin-5-yl)piperazin-1-yl)methyl)morpholino)methyl)benzamide] | < 1 |
| COCCOCCOCCOCCN(CC1CCN(c2ncc(C(=O)N[C@H]3C(C)(C)[C@H](Oc4cc(C)c(C#N)c(C)c4)C3(C)C)cn2)CC1)[C@H]1C[C@H](Oc2ccc3c(c2)C(=O)N(C2CCC(=O)NC2=O)C3=O)C1 (stereo partly drawn) [compound 145, N-((1r,3r)-3-(4-cyano-3,5-dimethylphenoxy)-2,2,4,4-tetramethylcyclobutyl)-2-(4-(2-((1r,3r)-3-((2-(2,6-dioxopiperidin-3-yl)-1,3-dioxoisoindolin-5-yl)oxy)cyclobutyl)-5,8,11,14-tetraoxa-2-azapentadecyl)piperidin-1-yl)pyrimidine-5-carboxamide] | < 1 |
| CCN(CC1CCN(c2ccc(C(=O)N[C@H]3C(C)(C)[C@H](Oc4ccc(C#N)c(OC)c4)C3(C)C)cc2)CC1)[C@H]1C[C@H](Oc2ccc3c(c2)C(=O)N(C2CCC(=O)NC2=O)C3=O)C1 (stereo partly drawn) [compound 147, N-((1r,3r)-3-(4-cyano-3-methoxyphenoxy)-2,2,4,4-tetramethylcyclobutyl)-4-(4-((((1r,3r)-3-((2-(2,6-dioxopiperidin-3-yl)-1,3-dioxoisoindolin-5-yl)oxy)cyclobutyl)(ethyl)amino)methyl)piperidin-1-yl)benzamide] | < 1 |

The remaining lines, values ahead:

| DC50 [nM] | SMILES |
| --- | --- |
| < 1 | CC1(C)[C@H](NC(=O)c2ccc(N3CCC(CN(CCN4CCOCC4)[C@H]4C[C@H](Oc5ccc6c(c5)C(=O)N(C5CCC(=O)NC5=O)C6=O)C4)CC3)cc2)C(C)(C)[C@H]1Oc1ccc(C#N)c(C#N)c1 (stereo partly drawn) [compound 214, N-((1r,3r)-3-(3,4-dicyanophenoxy)-2,2,4,4-tetramethylcyclobutyl)-4-(4-((((1r,3r)-3-((2-(2,6-dioxopiperidin-3-yl)-1,3-dioxoisoindolin-5-yl)oxy)cyclobutyl)(2-morpholinoethyl)amino)methyl)piperidin-1-yl)benzamide] |
| 1 to 10 | CCOc1cc(O[C@H]2C[C@H](N(CC3CCN(c4cnc(C(=O)N[C@H]5C(C)(C)[C@H](Oc6cc(C)c(C#N)c(C)c6)C5(C)C)cn4)CC3)C(C)C)C2)cc2c1C(=O)N(C1CCC(=O)NC1=O)C2=O (mixture of isomers) [compound 238, rac-N-((1r,3r)-3-(4-cyano-3,5-dimethylphenoxy)-2,2,4,4-tetramethylcyclobutyl)-5-(4-((((1r,3r)-3-((2-(2,6-dioxopiperidin-3-yl)-7-ethoxy-1,3-dioxoisoindolin-5-yl)oxy)cyclobutyl) (isopropyl)amino)methyl)piperidin-1-yl)pyrazine-2-carboxamide] |
